Entries after “also recorded” stand apart in the source; their conditions may differ. Like-named read-outs stand apart in the source and are kept apart here.
Key:
Format in all cases: cell-based
Xenopus laevis VDR = target: T1, Xenopus laevis VDR (Xenopus laevis, UniProt O13124); test: luciferase reporter transactivation assay in HepG2-NTCP cells, GAL4/xlVDR LBD chimera with tk-UAS-Luc; details: for Effect on Xenopus laevis VDR: screening for activators, at least three concentrations of each drug
T1 sequence (O13124 90-422): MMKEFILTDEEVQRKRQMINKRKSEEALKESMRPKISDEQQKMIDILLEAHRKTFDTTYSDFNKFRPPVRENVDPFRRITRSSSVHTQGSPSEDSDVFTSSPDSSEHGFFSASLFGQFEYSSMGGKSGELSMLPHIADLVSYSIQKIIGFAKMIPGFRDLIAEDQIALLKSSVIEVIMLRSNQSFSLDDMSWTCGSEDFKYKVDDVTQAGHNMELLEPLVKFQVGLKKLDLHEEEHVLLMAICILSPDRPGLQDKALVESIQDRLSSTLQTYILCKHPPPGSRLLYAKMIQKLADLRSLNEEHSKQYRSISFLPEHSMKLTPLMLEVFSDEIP

Zebrafish VDR = target: T2, Zebrafish VDR (Danio rerio, UniProt Q9PTN2); test: luciferase reporter transactivation assay in HepG2-NTCP cells, GAL4/zfVDR LBD chimera with tk-UAS-Luc; details: for Effect on zebrafish VDR: screening for activators, at least three concentrations of each drug
T2 sequence (Q9PTN2 121-453): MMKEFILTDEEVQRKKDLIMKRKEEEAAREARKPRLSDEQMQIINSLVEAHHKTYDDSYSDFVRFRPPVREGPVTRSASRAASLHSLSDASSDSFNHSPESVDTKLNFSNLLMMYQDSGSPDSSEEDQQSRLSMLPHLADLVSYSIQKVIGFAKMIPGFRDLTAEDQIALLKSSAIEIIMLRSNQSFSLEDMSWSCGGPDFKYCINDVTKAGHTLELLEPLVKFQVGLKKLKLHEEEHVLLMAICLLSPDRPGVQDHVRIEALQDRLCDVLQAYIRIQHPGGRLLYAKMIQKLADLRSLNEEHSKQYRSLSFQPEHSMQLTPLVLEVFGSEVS

Sea lamprey VDR = target: T3, Sea lamprey VDR (Petromyzon marinus, UniProt Q7ZZY9)
T3 sequence (Q7ZZY9 92-406): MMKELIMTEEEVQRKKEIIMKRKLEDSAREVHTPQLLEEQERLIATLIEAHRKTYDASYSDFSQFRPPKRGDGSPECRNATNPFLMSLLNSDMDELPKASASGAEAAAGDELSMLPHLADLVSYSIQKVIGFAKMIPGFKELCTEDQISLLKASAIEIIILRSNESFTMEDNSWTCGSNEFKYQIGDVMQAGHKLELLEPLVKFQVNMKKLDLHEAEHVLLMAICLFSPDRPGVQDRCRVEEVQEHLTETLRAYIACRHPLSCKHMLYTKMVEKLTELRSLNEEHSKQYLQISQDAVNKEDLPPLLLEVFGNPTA

[1] = screening for activators, at least three concentrations of each drug
[2] = HepG2-NTCP cells, luciferase reporter, unit not given, also cells saying No effect

Compound	Effect on Xenopus laevis VDR (Xenopus laevis VDR)	Effect on zebrafish VDR (Zebrafish VDR)	Effect on sea lamprey VDR (Sea lamprey VDR; [1])	Xenopus VDR EC50 ± SD (Xenopus laevis VDR; [2])	Zebrafish VDR EC50 ± SD (Zebrafish VDR; [2])	Sea lamprey VDR EC50 ± SD (Sea lamprey VDR; [2])	Effect on sea lamprey VDR (Sea lamprey VDR)
CC(C)=CCC[C@@H](C)[C@H]1CC[C@@]2(C)[C@@H]3CC[C@H]4C(C)(C)[C@@H](O)CC[C@@]45C[C@@]35CC[C@]12C [Cycloartenol]	No effect	No effect	No effect	–	–	–	–
CCCCCCCCCCCCCCSCC(=O)O [Tetradecylthioacetic acid]	No effect	No effect	No effect	–	–	–	–
CCCCC[C@H](O)/C=C/C=C\CCCCCCCC(=O)O [13(S)-Hydroxy-9Z,11E-octadecadienoic acid]	No effect	No effect	No effect	–	–	–	–
CC(C)=CCC[C@@H](C)[C@H]1CC[C@@]2(C)C3=C(CC[C@]12C)[C@@]1(C)CC[C@H](O)C(C)(C)[C@@H]1CC3 [Lanosterol]	No effect	No effect	No effect	–	–	–	–
C[C@H](CCC(=O)NCC(=O)O)[C@H]1CC[C@H]2[C@@H]3CC[C@@H]4C[C@H](O)CC[C@]4(C)[C@H]3C[C@H](O)[C@]12C.O [Glycodeoxycholic acid monohydrate]	No effect	No effect	No effect	–	–	–	–
C[C@]12CC[C@H]3[C@@H](CCC4=CC(=O)CC[C@@]43C)[C@@H]1CC[C@@H]2C(=O)CO [Cortexone (4-Pregnen-21-ol-3,20-dione), 4-Pregnen-21-ol-3,20-dione]	No effect	No effect	No effect	–	–	–	–
CCCc1c(OCCCCc2nnn[nH]2)ccc(C(C)=O)c1O [LY 171883]	No effect	No effect	No effect	–	–	–	–
C[C@]12CC[C@@H]3c4ccc(OS(=O)(=O)O)cc4CC[C@H]3[C@@H]1CC[C@@H]2O [Estradiol 3-sulfate]	No effect	No effect	No effect	–	–	–	–
C[C@]12CC[C@@H](O)C[C@H]1CC[C@@H]1[C@@H]2[C@@H](O)C[C@@]2(C)[C@H]1CC[C@]2(O)[C@@H](O)CO [Cortol]	No effect	No effect	No effect	–	–	–	–
C[C@@H](O)[C@H]1CC[C@H]2[C@@H]3CC[C@@H]4C[C@H](O)CC[C@]4(C)[C@H]3CC[C@]12C [5b-Pregnan-3a,20b,diol]	No effect	No effect	No effect	–	–	–	–
C[C@H](CCCO)[C@H]1CC[C@H]2[C@@H]3[C@H](O)C[C@@H]4C[C@H](O)CC[C@]4(C)[C@H]3C[C@H](O)[C@]12C [5b-Cholan-3a,7a,12a,24-tetrol]	No effect	No effect	No effect	–	–	–	–
C[C@]12CCC(=O)C[C@@H]1CC[C@@H]1[C@@H]2CC[C@]2(C)C=CC[C@@H]12 [16,(5a)-Androsten-3-one]	No effect	No effect	No effect	–	–	–	–
C[C@]12CC[C@H](O)CC1=CC[C@@H]1[C@@H]2CC[C@]2(C)C(=O)CC[C@@H]12 [DHEA]	No effect	No effect	No effect	–	–	–	–
C[C@H](CCC(=O)O)[C@H]1CC[C@H]2[C@@H]3CC[C@@H]4C[C@H](O)CC[C@]4(C)[C@H]3CC[C@]12C [Lithocholic acid]	–	–	–	No effect	No effect	No effect	–
CC(=O)[C@@]1(O)CC[C@H]2[C@@H]3CC=C4C[C@@H](O)CC[C@]4(C)[C@H]3CC[C@@]21C [17-Hydroxypregnenolone]	No effect	No effect	No effect	–	–	–	–
CC(CCC(=O)NCC(=O)O)C1CCC2C3CCC4CC(O)CCC4(C)C3CC(O)C12C (stereo not drawn) [Glycodeoxycholic acid]	No effect	No effect	No effect	–	–	–	–
CC(C(=O)O)c1ccc(-c2ccccc2)c(F)c1 (stereo not drawn) [Flurbiprofen]	No effect	No effect	No effect	–	–	–	–
CC(C)=CCC/C(C)=C/CC/C(C)=C/CC/C(C)=C/CC1=C(C)C(=O)c2ccccc2C1=O [Vitamin K2]	No effect	No effect	No effect	–	–	–	–
C[C@H](CCC(=O)NCCS(=O)(=O)[O-])[C@H]1CC[C@H]2[C@@H]3C[C@H](O)[C@@H]4C[C@H](O)CC[C@]4(C)[C@H]3CC[C@]12C.[Na+] [Taurohyodeoxycholic acid]	No effect	No effect	No effect	–	–	–	–
C#C[C@]1(O)CC[C@H]2[C@@H]3CCC4=CC(=O)CC[C@@H]4[C@H]3CC[C@@]21C [Norethindrone]	No effect	No effect	–	–	–	–	No effect
C[C@H](CCC(=O)O)[C@H]1CC[C@H]2[C@@H]3C(=O)C[C@@H]4C[C@H](O)CC[C@]4(C)[C@H]3C[C@H](O)[C@]12C [7-Ketodeoxycholic acid]	No effect	No effect	No effect	–	–	–	–
C[C@H](CCC(=O)NCCS(=O)(=O)O)[C@H]1CC[C@H]2[C@@H]3CC[C@@H]4C[C@H](OS(=O)(=O)O)CC[C@]4(C)[C@H]3CC[C@]12C [Taurolithocholic acid 3-sulfate]	No effect	No effect	No effect	–	–	–	–
C/C=C1\C(=O)C[C@H]2[C@@H]3CCC4=CC(=O)CC[C@]4(C)[C@H]3CC[C@]12C [Z-Guggulsterone]	No effect	No effect	No effect	–	–	–	–
CC(=O)[C@H]1CC[C@H]2[C@@H]3CC[C@@H]4CC(=O)CC[C@]4(C)[C@H]3CC[C@]12C [5b-Pregnan-3,20-dione]	No effect	No effect	No effect	–	–	–	–
C[C@H](CCC(=O)O)[C@H]1CC[C@H]2[C@@H]3[C@@H](O)[C@H](O)[C@@H]4C[C@H](O)CC[C@]4(C)[C@H]3CC[C@]12C [w-Muricholic acid]	No effect	No effect	No effect	–	–	–	–
O=C(O)Cc1cccc(OCCCN(Cc2cccc(C(F)(F)F)c2Cl)CC(c2ccccc2)c2ccccc2)c1 [GW3965]	None of these three VDRs were activated; also recorded: No effect	None of these three VDRs were activated; also recorded: No effect	None of these three VDRs were activated; also recorded: No effect	–	–	–	–
CC(C)=CCC/C(C)=C/CC/C(C)=C/CO [Farnesol]	No effect	No effect	No effect	–	–	–	–
CC(C)=CCC/C(C)=C/CC/C(C)=C/CC/C(C)=C/CO [Geranygeraniol]	No effect	No effect	No effect	–	–	–	–
